One data set concerns H226. The data set can be described thus: Anti-proliferative effect, SRB test. It is filed as cell-based, human. Particulars: H226 non-small cell lung cancer, 5 days of incubation. On the procedure: (§1) The anti-proliferative effect of prodrugs and parent drugs was determined in vitro applying seven well-characterised human tumor cell lines and the microculture sulphorhodamine B (SRB) test. The anti-proliferative effects were determined and expressed as IC50 values, that are the (pro)drug concentrations that gave 50% inhibition when compared to control cell growth after 5 days of incubation.

The subject of a further data set is MCF-7. The data set can be described thus: Anti-proliferative effect, SRB test. It is filed as cell-based, human. Conditions: MCF-7 breast cancer, 5 days of incubation. On the procedure:
as §1

The next data set deals with IGROV. The data set can be described thus: Anti-proliferative effect, SRB test. It is filed as cell-based, human. Particulars: IGROV ovarian cancer, 5 days of incubation. The method, then:
as §1

A further data set deals with A498. The data set can be described thus: Anti-proliferative effect, SRB test. Conditions: A498 renal cancer, 5 days of incubation. It is filed as cell-based, human. The method, then:
as §1

The next data set relates to EVSA-T. The data set can be described thus: Anti-proliferative effect, SRB test. It is filed as cell-based, human. Conditions: EVSA-T breast cancer, 5 days of incubation. On the procedure: as §1
In the next data set the test system is WIDR. The data set can be described thus: Anti-proliferative effect, SRB test. It is filed as cell-based, human. Conditions: WIDR colon cancer, 5 days of incubation. On the procedure:
as §1

The next data set relates to M19. The data set can be described thus: Anti-proliferative effect, SRB test. Conditions: M19 melanoma, 5 days of incubation. It is filed as cell-based, human. On the procedure: as §1
For data set [1] the following is noted: absence of zinc powder, methanol/acetic acid, same conditions. On the procedure:
36 mg of 2′-[nitrocinnamyl carbonate]-paclitaxel 1 was dissolved in 8 ml methanol and 2 ml acetic acid. A catalytic amount of zinc powder was added and the red mixture was stirred for 12 h. Dichloromethane was added and the organic layer was washed with saturated sodium bicarbonate, 0.5 N potassium bisulfate, brine, and water and dried over anhydrous sodium sulfate.

A short description of data set [2]: Stability of prodrugs in 0.1 M Tris/HCl buffer (pH 7.3). Conditions: TLC.
Setting [3] is: 150 μM in 0.1 M Tris/HCl buffer (pH 7.3), 3 days.

Values after ≈ are worked out from the molar mass of the structure shown.

Turning to `COc1cccc2c1C(=O)c1c(O)c3c(c(O)c1C2=O)C[C@@](O)(C(=O)CO)C[C@@H]3O[C@H]1C[C@H](N)[C@H](O)[C@H](C)O1` [Doxorubicin, doxorubicin, reference compound], the ID50 with H226 came out at 0.199 µg/mL (≈ 0.366 µM); in the data set on MCF-7, 0.01 µg/mL (≈ 0.0184 µM); in the data set on IGROV, 0.06 µg/mL (≈ 0.11 µM); in the data set with A498, 0.09 µg/mL (≈ 0.166 µM); in the data set with EVSA-T, 0.008 µg/mL (≈ 0.0147 µM); in the data set with WIDR, 0.011 µg/mL (≈ 0.0202 µM). Besides, the ID50 in the data set with M19 is 0.016 µg/mL (≈ 0.0294 µM).

Consider `CC(=O)OC1C(=O)C2(C)C(O)CC3OCC3(OC(C)=O)C2C(OC(=O)c2ccccc2)C2(O)CC(OC(=O)C(OC(=O)OCC=Cc3ccc([N+](=O)[O-])cc3)C(NC(=O)c3ccccc3)c3ccccc3)C(C)=C1C2(C)C` (stereo not drawn) [Prodrug 1, 2′-[4-nitrocinnamyl carbonate]-paclitaxel], for which the “paclitaxel release without reduction” value in data set [1] is “no paclitaxel was formed”.

Turning to “H-D-Ala-Phe-Lys-PABC-PABC-DOX.5.7HCl [Prodrug 20]”, the “formation of degradation products” value in data set [2] (100–270 μM in 0.1 M Tris/HCl buffer (pH 7.3), 90 hours) is “no formation of degradation products”. For the same compound, the ID50 in the data set with H226 was determined as 0.503 µg/mL; in the data set on MCF-7, 0.242 µg/mL; in the data set on IGROV, 0.896 µg/mL; in the data set on A498 it was 2.303 µg/mL; in the data set with EVSA-T, 0.546 µg/mL; in the data set with WIDR it was 0.627 µg/mL. The ID50 in the data set on M19 turned out to be 0.302 µg/mL.

For the compound “2′-[H-D-Ala-Phe-Lys-PABC-N(Me)—(CH2)2—N(Me)CO]-paclitaxel (.2HCl) [Prodrug 43]”, the “formation of degradation products” value in data set [2] (setting [3]) is listed as “no formation of degradation products”. The ID50 turned out to be 0.062 µg/mL in the data set with H226; 0.06 µg/mL in the data set with MCF-7; 0.499 µg/mL in the data set on IGROV; 0.681 µg/mL with A498; 0.119 µg/mL in the data set on EVSA-T; 0.117 µg/mL in the data set with WIDR. Further, in the data set on M19, the ID50 was determined as 0.096 µg/mL.

With `CC(=O)OC1C(=O)C2(C)C(O)CC3OCC3(OC(C)=O)C2C(OC(=O)c2ccccc2)C2(O)CC(OC(=O)C(OC(=O)OCc3ccc(NC(=O)OCc4ccc(NC(=O)C(CCCCN)NC(=O)C(Cc5ccccc5)NC(=O)C(C)N)cc4)cc3)C(NC(=O)c3ccccc3)c3ccccc3)C(C)=C1C2(C)C.Cl.Cl` [Prodrug 22, 2′-[H-D-Ala-Phe-Lys-PABC-PABC]-paclitaxel (.2HCl)], in [2] (setting [3]), the “formation of degradation products” value is recorded as “no formation of degradation products”. Further, the ID50 came to 0.007 µg/mL in the data set on H226; 0.011 µg/mL in the data set with MCF-7; 0.022 µg/mL with IGROV; 0.025 µg/mL with A498; 0.005 µg/mL in the data set on EVSA-T; 0.005 µg/mL in the data set with WIDR. In the data set on M19, this compound showed an ID50 of 0.007 µg/mL.

In the case of `CC(=O)O[C@H]1C(=O)[C@@]2(C)[C@H]([C@H](OC(=O)c3ccccc3)[C@]3(O)C[C@H](OC(=O)[C@H](O)[C@@H](NC(=O)c4ccccc4)c4ccccc4)C(C)=C1C3(C)C)[C@]1(OC(C)=O)CO[C@@H]1C[C@@H]2O` [Paclitaxel, paclitaxel, reference compound], the ID50 is below 0.003 µg/mL in the data set on H226; below 0.003 µg/mL in the data set with MCF-7; 0.01 µg/mL (≈ 0.0117 µM) in the data set with IGROV; below 0.003 µg/mL in the data set with A498; below 0.003 µg/mL in the data set on EVSA-T; below 0.003 µg/mL in the data set on WIDR. Besides, in the data set with M19, the ID50 was below 0.003 µg/mL.

The values are drawn from patent publication US7223837B2, “Elongated and multiple spacers in activatible prodrugs” (Syntarga B.V., priority 2001, dated 2007).
